Laboratory results from paper PMC10033409, “Autoregulation of GPCR signalling through the third intracellular loop” (Nature, 2023).
“And” between values parts separate entries of the source, which are not always exact repeats. Equal entries are not always repeated.

Assays:
PTH1R–Gs peptide = assay: PTH1R-luciferase complementation reporter assay, Gs peptide; type: biochemical, human; settings: PTH1R construct named by the receptor or protein whose sequence replaces ICL3 (WT = wild-type); X axis of Figure 5G
PTH1R–Gq peptide = assay: PTH1R-luciferase complementation reporter assay, Gq peptide; type: biochemical, human; settings: PTH1R construct named by the receptor or protein whose sequence replaces ICL3 (WT = wild-type); Y axis of Figure 5G
Experimental: For PTH1R luciferase complementation reporter assays, cells were seeded the day prior to transfection at 25-30% confluence on 12-well plates. For each transfection, 0.5 μg DNA, 1.5 μl X-tremeGENE HP, and 100 μl Opti-MEM were combined, incubated for 15-20 min, and added to seeded wells. For each mutant, PTH1R-Gs peptide, PTH1R-Gq peptide and PTH1R-(no peptide) constructs were transfected in parallel. Spep and Qpep constructs were transfected 24 h prior to collection, and no-peptide constructs were transfected 18 h before collection. […] Media in each well was used to gently shear and resuspend the cells by pipetting. The cell mixture was centrifuged (3 min, 300g) and the media was aspirated. Cell pellet was resuspended in 1 ml PBS and centrifuged again as above. […] Cellular debris was removed by centrifugation (1,000g for 1 min). To collect additional vesicles, debris was resuspended in 0.3 ml PBS, briefly vortexed, and centrifuged again (1,000g for 1 min). The ~0.9 ml of combined decanted supernatant was centrifuged one additional time (1,000g for 2 min) to better remove cellular debris. […] Vesicle samples were collected in a 96-well clear bottom plate and assayed for TagRFP fluorescence (Tecan Spark, excitation 521 nm, emission 585 nm, gain 150). For each set of constructs for a given […] ([…] control), samples were diluted to the lowest TagRFP counts. […] The plate was tapped 2-3 times to mix, and the kinetic read was resumed. Moving averages were computed for each kinetic trace (3-point averages for 5 min equilibration, 8-point moving averages post-drug treatment). Each kinetic trace was normalized to the last point of the pre-drug equilibration. The maximum luminescence value that appeared stable over time was used for further analysis. Specific Spep and Qpep signals were calculated by subtracting the control value from the Spep value and the Qpep value for a given experiment.

CB1R [1] = target: T1, CB1R (Mus musculus, UniProt P47746); assay: cAMP accumulation, CB1R; type: cell-based, murine; settings: CB1R Wild-Type; saturating agonist concentration; 500 µM IBMX
T1 construct: expressed in transfected cells; host or cells: transfected cells (HEK 293T for the β2AR assay)
T1 sequence (P47746 whole entry): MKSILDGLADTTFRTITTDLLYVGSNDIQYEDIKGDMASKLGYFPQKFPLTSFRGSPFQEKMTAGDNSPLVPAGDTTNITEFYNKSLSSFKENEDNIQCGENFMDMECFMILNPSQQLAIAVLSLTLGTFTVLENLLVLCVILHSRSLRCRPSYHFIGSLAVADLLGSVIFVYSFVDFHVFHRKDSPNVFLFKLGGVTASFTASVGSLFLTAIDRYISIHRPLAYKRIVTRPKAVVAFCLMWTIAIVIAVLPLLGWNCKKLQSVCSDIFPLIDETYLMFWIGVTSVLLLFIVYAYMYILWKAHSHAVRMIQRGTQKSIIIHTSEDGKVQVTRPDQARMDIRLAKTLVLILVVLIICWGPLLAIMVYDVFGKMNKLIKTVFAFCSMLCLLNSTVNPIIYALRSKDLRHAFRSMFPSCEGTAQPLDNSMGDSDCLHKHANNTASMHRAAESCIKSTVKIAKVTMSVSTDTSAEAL
Experimental: (§1) One millilitre of medium was removed from each well containing transfected cells. The remaining volume was used to gently shear and resuspend the cells by pipetting. The cell mixture was centrifuged (3 min, 300g) and media was removed using a vacuum manifold. […] . The cells were washed once by repeating this procedure.
(§2) For all other second messenger assays, expression level and cell density of each condition was estimated through fluorescence. […] Cells were resuspended at 350,000 ± 30,000 fluorescence counts at a wavelength representing optical density of the sample (excitation 430 nm/emission 450 nm), corresponding with 2 × 10^6 ± 5 × 10^5 cells per m^l. This was confirmed by counting the cells on a haemocytometer (Countess II). The following metrics were assessed for optimal expression: mCerulean peak emission (excitation 430 nm/475 nm):optical density emission (excitation 430 nm/emission 450 nm) of 2.0 ± 0.3 and mCitrine peak emission (excitation 490 nm/emission 525 nm):mCerulean peak emission (excitation 430 nm/emission 475 nm) of 2.0 ± 0.2.
(§3) Resuspended cells were added 1:1 with a 2× concentration of ligand (10 µl final) into an opaque 384-well flat bottom plate (Greiner Bio-One). […] . for FSK inhibition assays with β-ARs, 100 µM metoprolol was used. […] Luminescence was measured on a Tecan Spark plate reader (500 ms integration, one measurement per well).

CB1R [2] = target: T2, CB1R (Mus musculus, UniProt P47746, DEL312-328); assay: cAMP accumulation, CB1R; type: cell-based, murine; settings: CB1R ∆ICL3; saturating agonist concentration; 500 µM IBMX
T2 construct: expressed in transfected cells; host or cells: transfected cells (HEK 293T for the β2AR assay)
T2 sequence (P47746 with tags, fused parts or gaps DEL312-328): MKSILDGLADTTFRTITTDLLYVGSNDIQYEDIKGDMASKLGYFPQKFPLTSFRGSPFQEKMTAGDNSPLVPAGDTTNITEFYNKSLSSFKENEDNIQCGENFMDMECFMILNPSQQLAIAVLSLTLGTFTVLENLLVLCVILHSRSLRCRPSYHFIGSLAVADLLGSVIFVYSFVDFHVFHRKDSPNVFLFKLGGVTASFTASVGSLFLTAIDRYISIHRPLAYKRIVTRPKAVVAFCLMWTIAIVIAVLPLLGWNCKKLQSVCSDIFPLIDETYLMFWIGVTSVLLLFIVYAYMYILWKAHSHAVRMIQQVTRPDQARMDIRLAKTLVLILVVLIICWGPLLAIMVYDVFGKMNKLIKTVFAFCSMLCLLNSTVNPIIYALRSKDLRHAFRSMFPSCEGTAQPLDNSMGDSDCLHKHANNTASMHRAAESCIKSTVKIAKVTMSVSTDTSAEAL
Experimental: as §1, §2, §3

CB1R [3] = target: T1, CB1R; assay: InsP1 accumulation, CB1R; type: cell-based, murine; settings: CB1R Wild-Type; saturating agonist concentration
Experimental: (§4) One millilitre of medium was removed from each well containing transfected cells. The remaining volume was used to gently shear and resuspend the cells by pipetting. The cell mixture was centrifuged (3 min, 300g) and media was removed using a vacuum manifold. […] The cells were washed once by repeating this procedure.
as §2
(§5) Resuspended cells were added 1:1 with a 2× concentration of ligand (70 µl final) into an opaque 96-well U-bottom plate (Greiner Bio-One). […] Plates were incubated at 37 °C for 2 h to stimulate InsP1 production. […] FRET ratio for each reading was calculated as the ratio of acceptor emission to donor emission. […]

CB1R [4] = target: T2, CB1R; assay: InsP1 accumulation, CB1R; type: cell-based, murine; settings: CB1R ∆ICL3; saturating agonist concentration
Experimental: as §4, §2, §5

A1R [5] = target: T3, A1R (Homo sapiens, UniProt P30542); assay: cAMP accumulation, A1R; type: cell-based; settings: AA1R Wild-Type; saturating agonist concentration; 500 µM IBMX
T3 sequence (P30542 1-326): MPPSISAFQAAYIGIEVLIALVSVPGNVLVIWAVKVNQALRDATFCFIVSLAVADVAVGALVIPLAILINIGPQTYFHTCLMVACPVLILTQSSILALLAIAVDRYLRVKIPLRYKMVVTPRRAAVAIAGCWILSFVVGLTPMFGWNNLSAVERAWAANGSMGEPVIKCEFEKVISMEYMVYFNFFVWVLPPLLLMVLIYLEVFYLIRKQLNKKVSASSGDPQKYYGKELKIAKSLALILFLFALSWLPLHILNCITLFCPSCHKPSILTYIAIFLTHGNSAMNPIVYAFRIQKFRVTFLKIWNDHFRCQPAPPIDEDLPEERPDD
Experimental: as §1, §2, §3

A1R [6] = target: T4, A1R (Homo sapiens, UniProt P30542, DEL216-222); assay: cAMP accumulation, A1R; type: cell-based; settings: AA1R ∆ICL3; saturating agonist concentration; 500 µM IBMX
T4 construct: expressed in transfected cells; host or cells: transfected cells (HEK 293T for the β2AR assay)
T4 sequence (P30542 with tags, fused parts or gaps DEL216-222): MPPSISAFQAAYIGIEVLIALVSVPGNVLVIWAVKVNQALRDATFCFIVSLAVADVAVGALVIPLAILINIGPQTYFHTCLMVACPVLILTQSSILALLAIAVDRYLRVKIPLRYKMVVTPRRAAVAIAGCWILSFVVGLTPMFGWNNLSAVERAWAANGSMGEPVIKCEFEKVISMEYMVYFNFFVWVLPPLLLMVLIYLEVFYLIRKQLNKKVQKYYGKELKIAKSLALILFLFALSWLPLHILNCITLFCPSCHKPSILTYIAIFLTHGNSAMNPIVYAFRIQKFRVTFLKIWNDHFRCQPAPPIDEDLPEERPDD
Experimental: as §1, §2, §3

A1R [7] = target: T3, A1R; assay: InsP1 accumulation, A1R; type: cell-based; settings: AA1R Wild-Type; saturating agonist concentration
Excerpt: (§6) For all other second messenger assays, expression level and cell density of each condition was estimated through fluorescence. Fluorescence spectra for mCerulean (Horiba Fluoromax 4, excitation 430 nm, emission scan 450–600 nm, bandpass 4 nm) and mCitrine (Horiba Fluoromax 4, excitation 490 nm, emission scan 500–600 nm, bandpass 4 nm) were acquired for each condition. Cells were resuspended at 350,000 ± 30,000 fluorescence counts at a wavelength representing optical density of the sample (excitation 430 nm/emission 450 nm), corresponding with 2 × 10^6 ± 5 × 10^5 cells per m^l. […]
(§7) Resuspended cells were added 1:1 with a 2× concentration of ligand (70 µl final) into an opaque 96-well U-bottom plate (Greiner Bio-One). […] FRET ratio for each reading was calculated as the ratio of acceptor emission to donor emission. InsP1 signal for a drug and transfection combination was calculated as the average FRET ratio of a given transfection condition without drug treatment subtracted from the average FRET ratio of a of a given transfection condition with drug treatment.

A1R [8] = target: T4, A1R; assay: InsP1 accumulation, A1R; type: cell-based; settings: AA1R ∆ICL3; saturating agonist concentration
Excerpt: as §6, §7

β2AR [9] = target: β2AR (Homo sapiens, UniProt P07550); settings: wild-type β2AR; presence of Gq peptide
Experimental: (§8) Reactions were equilibrated, washed, and measured following the same procedure listed above for the radioligand antagonist-binding assay. […] Weighted averages of these IC50 values were used for comparison purposes and inhibition constant (Ki) calculations. […] Binding assays were performed in technical duplicates. Three biological replicates were collected with different membrane preparations for each replicate.

β2AR [10] = settings: β2AR(∆ICL3); presence of Gq peptide
Experimental: as §8

[11] = target: β2AR–Gs peptide FRET sensor (Homo sapiens, UniProt P07550, DEL236-257); assay: ∆FRET assay, β2AR–Gs peptide SPASM FRET sensor; settings: β2AR(∆ICL3)–Gs peptide sensor
[12] = test system: β2AR–Gs peptide FRET sensor; assay: ∆FRET assay, β2AR–Gs peptide SPASM FRET sensor; settings: wild-type β2AR–Gs peptide sensor
[13] = target: β2AR ICL3 FRET sensor, β2AR(L258Azi/Y350Azi/∆351–413) (Homo sapiens, UniProt P07550, L258F/Y350F); assay: Time-correlated single photon counting FRET assay, β2AR ICL3 FRET sensor (AZDye488/AZDye546)
Experimental: Cell membranes were prepared following the procedure in ‘Crude cell membrane extracts’ through the first ultracentrifugation step (135,000g, 25 min, 4 °C). […] Solution was homogenized, first by passing through a 1 ml micropipette 10 times, then passing through a 20-gauge needle 10 times. To initiate the reaction, sodium ascorbate (50 mM) was added to the mixture and mixed by pipetting (2 ml final volume). Reactions were incubated with mild shaking (500 rpm) for 30 min at 25 °C.
For conditions without drug, peptide or nanobody, an equivalent volume of assay buffer was added. Reactions were equilibrated for 5 min prior to reading. […] Time-resolved fluorescence decay data were fit to the equation: Decay=α1e^−t/τ^1+α2e^−t/τ^2+α3e^−t/τ^3
Amplitude-weighted average lifetimes (τavg) were calculated from the three-exponential decay equation: τavg=(α1τ1+α2τ2+α3τ3)/(α1+α2+α3)
Each condition was performed in technical duplicate or triplicate, depending on sensor yield.

β2AR [14] = assay: cAMP accumulation (cAMP-Glo), β2AR; type: cell-based, human; settings: Extended Data Figure 6B
β2AR–mCerulean = β2AR–mCerulean (Homo sapiens, UniProt P07550, DEL236-262); settings: ∆ICL3 β2AR–mCerulean; 10 µM biotinylated Gq peptide, 100 µM isoproterenol; single experiments 1-4
Experimental: Bio-Spep/Bio-Qpep (10 µM final) was added to the reaction mixture (300 µl final) and equilibrated on ice for 30 min. […] To the remaining 200 µl, 20 µl of 0.4 mg ml^−1 streptavidin-coated magnetic beads were added to the reaction mixture, equilibrated for 5 min at ambient temperature, and precipitated using a neodymium disc magnet N52 (20 × 40 mm). Fluorescence spectra was taken of the remaining supernatant in duplicate.

β2AR L258Azi (Δ350-413) = target: T5, β2AR L258Azi (Δ350-413) (Homo sapiens, UniProt P07550, L258F); assay: Time-correlated single photon counting, other sensor designs and dye-only controls (mNeonGreen/Cy3, TagRFP/AZDye488, free dyes); type: biochemical; settings: Extended Data Figure 4L
T5 construct: HA; mNeonGreen, TagRFP or SNAP (differs by sensor design); expressed in transfected cells; host or cells: crude membrane extracts of transfected cells (HEK293), co-transfected with pIRE4-Azi
Experimental: Solution was homogenized, first by passing through a 1 ml micropipette 10 times, then passing through a 20-gauge needle 10 times. To initiate the reaction, sodium ascorbate (50 mM) was added to the mixture and mixed by pipetting (2 ml final volume). Reactions were incubated with mild shaking (500 rpm) for 30 min at 25 °C. […] For conditions without drug, peptide or nanobody, an equivalent volume of assay buffer was added. Reactions were equilibrated for 5 min prior to reading.

[15] = Extended Data Figure 6I, replicates 1-4
[16] = β2AR wild-type and ICL3 alanine mutants, replicates N 1-6, some omitted from analysis

## 5HT1D
PTH1R–Gs peptide
  Specific Peptide Signal, Gs (Average): 0.24
PTH1R–Gq peptide
  Specific Peptide Signal, Gq (Average): -0.15

## 5HT2A
PTH1R–Gs peptide
  Specific Peptide Signal, Gs (Average): 0.37
PTH1R–Gq peptide
  Specific Peptide Signal, Gq (Average): 0.0157

## CCCCC/C=C\C/C=C\C/C=C\C/C=C\CCCC(=O)OC(CO)CO [2-Arachidonoylglycerol]
CB1R [1]
  cAMP (AU), Average: 0.05 AU
CB1R [2]
  cAMP (AU), Average: 0.16 AU
CB1R [3]
  IP1 (AU), Average: 0.14 AU
CB1R [4]
  IP1 (AU), Average: 0.27 AU

## OC[C@H]1O[C@@H](n2cnc3c(NC4CCCC4)ncnc32)[C@H](O)[C@@H]1O [N^6-cyclopentyladenosine]
A1R [5]
  cAMP (AU), Average: -0.0258 AU
A1R [6]
  cAMP (AU), Average: 0.0561 AU
A1R [7]
  IP1 (AU), Average: 0.15 AU
A1R [8]
  IP1 (AU), Average: 0.0652 AU

## ADRB1
PTH1R–Gs peptide
  Specific Peptide Signal, Gs (Average): 0.47
PTH1R–Gq peptide
  Specific Peptide Signal, Gq (Average): 0.0635

## CNR2
PTH1R–Gs peptide
  Specific Peptide Signal, Gs (Average): 0.55
PTH1R–Gq peptide
  Specific Peptide Signal, Gq (Average): 0.16

## DTENIRFVFAAVKDTILQLNLKEYNLV [Gq peptide]
β2AR [9]
  effect on agonist binding affinity: increased agonist binding affinity
β2AR [10]
  effect on agonist binding affinity: this effect was lost
[11]
  effect on FRET of β2AR–Gs peptide sensor: did not enhance FRET
[12]
  effect on FRET of β2AR–Gs peptide sensor: enhanced FRET
[13]; [15]
  Donor-only sample (tau donor) Lifetime (ns): 2.34 ns and 2.38 ns and 2.28 ns and 2.27 ns
  FRET sample (tau FRET) Lifetime (ns): 2.42 ns (2×) and 2.32 ns and 2.40 ns
[13]; Gq peptide alone
  effect on FRET of the ICL3 FRET sensor: increased FRET to a similar level to the agonist alone
[13]; combination of agonist and Gq peptide
  effect on FRET of the ICL3 FRET sensor: decreased FRET

## GPR27
PTH1R–Gs peptide
  Specific Peptide Signal, Gs (Average): 0.79
PTH1R–Gq peptide
  Specific Peptide Signal, Gq (Average): 0.14

## Gamma-synuclein
PTH1R–Gs peptide
  Specific Peptide Signal, Gs (Average): 0.39

## HRH1
PTH1R–Gs peptide
  Specific Peptide Signal, Gs (Average): 0.66
PTH1R–Gq peptide
  Specific Peptide Signal, Gq (Average): -0.09

## HVQ-AAA
β2AR [14]; Average
  cAMP (Relative to Wild-Type Average): 1.18
β2AR [14]; [16]
  cAMP (Relative to Wild-Type Average): 0.92 and 1.04 and 1.40 and 1.30 and 1.16 and 1.28

## Humanin
PTH1R–Gs peptide
  Specific Peptide Signal, Gs (Average): 0.41

## N-Biotin-DTENIRFVFAAVKDTILQLNLKEYNLV [Bio-Qpep]
β2AR–mCerulean
  Specific mCerulean bound: 0.09 and 0.14 and 0.15 and 0.12

## NTS1
PTH1R–Gs peptide
  Specific Peptide Signal, Gs (Average): 0.48
PTH1R–Gq peptide
  Specific Peptide Signal, Gq (Average): 0.14

## Oregon Green
β2AR L258Azi (Δ350-413)
  Fluorescence lifetime, Labeled Receptor, individual replicates 1-3: 2.34 and 2.19 and 2.32
β2AR L258Azi (Δ350-413); average of 3
  Fluorescence lifetime, Labeled Receptor, Average: 2.28

## QDG-AAA
β2AR [14]; Average
  cAMP (Relative to Wild-Type Average): 1.60
β2AR [14]; [16]
  cAMP (Relative to Wild-Type Average): 1.35 and 1.62 and 1.56 and 1.90 and 1.60 and 1.57
